Test system: 3T3-L1 adipocytes
Test: myc-GLUT4-GFP translocation to the cell surface
Assay type: cell-based, mouse
Settings: insulin 1 nM, 20 min
Experimental: FIG. 2, panels A-C show knockdown of CDP138 in 3T3-L1 adipocytes inhibits insulin-stimulated glucose transport (A) and myc-GLUT4-GFP translocation (B), but not endogenous GLUT4 movement to the periphery detected in TIRF zone (C). (A): Differentiated adipocytes at day 5 were transfected with siRNAs against mouse 5730419I09Rik or the scrambled siRNA (Scr) as described earlier (Jiang et al., 2003) for 60 hrs, then serum starved overnight. Cells were then treated with or without insulin (1 nM and 100 nM) for 30 min for the glucose uptake assay, or 15 min for immunoblotting of CDP138, pAkt, Akt and β-actin. Glucose transport data are presented as mean±SD of 4 independent experiments. *P<0.05 vs Scr Insulin (1 nM) group; **P<0.01 vs Scr Insulin (100 nM) group. (B): Day 5 adipocytes were transfected with siRNAs and myc-GLUT4-GFP for 60 hrs and then serum starved overnight. Cells were then treated with insulin (1 nM) for 20 min. Cell surface Myc-GLUT4-GFP was detected with anti-myc monoclonal Ab (9E10) and Alexa Fluor 568-labeled goat anti-mouse IgG in non-permeablized cells. The Myc signal and GFP signal were quantified as previously described (Jiang et al., 2002). Data presented are representative microscopic images and mean±SD of about 160 GFP-positive cells in each group from three independent experiments. **P<0.01 vs Scr Insulin (1 nM) group. […] GLUT4 was detected with a goat anti-GLUT4 Ab and Alexa Fluor 488-conjugated donkey anti-goat Ab in permeabilized cells. Top and middle panels show 100 nm TIRF zone and representative GLUT4 TIRFM images, respectively. Data are mean±SD of 3 independent experiments. **P<0.01 vs Scr Insulin groups.
GLUT4 translocation detection with wide field fluorescence and TIRF microscopy: Both wide field and TIRF microscopy were used to detect myc-GLUT4-GFP translocation to the cell surface as previously described (Jiang et al., 2002) and herein.
To test the effect of RNAi-induced gene specific knockdown of CDP138 or overexpression of CDP138 mutants on GLUT4 translocation, siRNAs or CDP138 constructs were transfected into adipocytes together with myc-GLUT4-GFP by electroporation as previously described (Jiang et al, 2003). […] Cells were washed with cold PBS, fixed with 4% formaldehyde and immunostained. Briefly, for siRNA study, the cell surface Myc-GLUT4-GFP was visualized with mouse anti-Myc Ab (9E10) and AlexaFluoro568-labeled goat anti-mouse secondary Ab (Invitrogen) in PBS containing 1% FBS. After washing, the coverslip were mounted with Prolong antifade reagent (Invitrogen, Eugene Oreg.). Fluorescence microscopy was carried as described below. Then, images were acquired with wide field microscopy as described below. For the study with overexpressed HAtagged CDP138 constructs, the cell surface Myc-GLUT4-GFP was visualized with rabbit anti-Myc Ab (Cell signaling, Inc) and AlexaFluoro568-labeled goat anti-rabbit secondary Ab (InVitrogen) in PBS containing 1% FBS. Cells were further permeabilized with PSB containing 0.5% Tween-20, and HA-tagged protein was detected with a mouse anti-HA epitope primary Ab followed by AlexaFluoro-350-labelled goat anti-mouse IgG. Insulin-induced myc-GLUT4 accumulation (AlexaFluoro-568 signal) within the evanescence excitation field (100 nm from dorsal membrane) in transfected adipocytes was measured with a Nikon Eclipse-Ti microscope equipped with a CoolSNAP HQ2 camera and laser scanning TIRF capacity. Total GLUT4-GFP signals and […] Alexa Fluoro-350 signals were acquired with wide field imaging to identify double-transfected cells. The ratio of myc-GLUT4 signal in the TIRF zone to the total Epi-GFP signal in wide field was used as a measure of GLUT4 translocation to the cell surface.
Image Analysis and Quantification: TIRF and wide field fluorescence microscopy were performed using a Nikon inverted microscope (Melville, N.Y.) with a cooled charge-coupled device camera. […]

insulin
increase in GLUT4 translocation (cell surface myc / total GFP): 3 fold

From US20120204273A1, “COMPOSITIONS RELATING TO A PHOSPHOPROTEIN AND METHODS OF USE” (SANFORD-BURNHAM MEDICAL RESEARCH INSTITUTE, priority 2010, published 2012)
